Measurements taken from patent US6737383B1, “Herbicidal oxadiazolidines” (priority 1999, dated 2004).

How the values were obtained:
[1] = test system: sugar beet; assay: Test B pre/postemergence sugar beet; assay type: in vivo, Beta vulgaris
Procedure, shortened: (§1)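 Herbicidal effect was estimated by eye on a ten-point control scale after plants spent twelve to sixteen days in a greenhouse following soil or foliar treatment. Foliar sprays targeted plants at one to four leaves; all doses were formulated in a non-phytotoxic solvent with surfactant.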

[2] = test system: corn; assay: Test B pre/postemergence corn; assay type: in vivo, Zea mays
Procedure, shortened: as §1

[3] = test system: purple nutsedge; assay: Test B pre/postemergence purple nutsedge; assay type: in vivo, Cyperus rotundus; conditions: Postemergence
Procedure, shortened: as §1

[4] = test system: duck salad; assay: Test B flood test duck salad; assay type: in vivo, Heteranthera limosa
Procedure, shortened: (§2)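 Plants were grown to the 2-leaf stage before treatment with test chemical, then held in a greenhouse for twelve to sixteen days. Injury was visually rated against untreated controls on a 0–10 scale, where 0 is no effect and 10 is complete control.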

[5] = test system: pigweed; assay: Test B pre/postemergence pigweed; assay type: in vivo, Amaranthus retroflexus
Procedure, shortened: as §1

[6] = test system: rice; assay: Test B flood test rice; assay type: in vivo, Oryza sativa
Procedure, shortened: as §2

[7] = test system: smallflower flatsedge; assay: Test B flood test smallflower flatsedge; assay type: in vivo, Cyperus difformis
Procedure, shortened: as §2

[8] = test system: surinam grass; assay: Test B pre/postemergence surinam grass; assay type: in vivo, Brachiaria decumbens
Procedure, shortened: as §1

[9] = test system: soybean; assay: Test B pre/postemergence soybean; assay type: in vivo, Glycine max
Procedure, shortened: as §1

[10] = test system: bedstraw; assay: Test B pre/postemergence bedstraw; assay type: in vivo, Galium aparine
Procedure, shortened: as §1

[11] = test system: wheat; assay: Test B pre/postemergence wheat; assay type: in vivo, Triticum aestivum
Procedure, shortened: as §1

[12] = test system: rape; assay: Test B pre/postemergence rape; assay type: in vivo, Brassica napus
Procedure, shortened: as §1

[13] = test system: cocklebur; assay: Test B pre/postemergence cocklebur; assay type: in vivo, Xanthium strumarium
Procedure, shortened: as §1

[14] = test system: wild oat; assay: Test B pre/postemergence wild oat; assay type: in vivo, Avena fatua
Procedure, shortened: as §1

[15] = test system: giant foxtail; assay: Test B pre/postemergence giant foxtail; assay type: in vivo, Setaria faberii
Procedure, shortened: as §1

[16] = test system: velvetleaf; assay: Test B pre/postemergence velvetleaf; assay type: in vivo, Abutilon theophrasti
Procedure, shortened: as §1

[17] = Preemergence, Rate 62 g/ha, scale of 0 to 10 where 0 is no effect and 10 is complete control
[18] = Preemergence, Rate 250 g/ha, scale of 0 to 10 where 0 is no effect and 10 is complete control
[19] = Preemergence, Rate 500 g/ha, scale of 0 to 10 where 0 is no effect and 10 is complete control
[20] = Rate 62 g/ha, Postemergence, scale of 0 to 10 where 0 is no effect and 10 is complete control
[21] = Rate 125 g/ha, Postemergence, scale 0 to 10
[22] = Rate 125 g/ha, Preemergence, scale of 0 to 10 where 0 is no effect and 10 is complete control
[23] = Rate 500 g/ha, Postemergence, scale 0 to 10, 0 no effect, 10 complete control
[24] = Rate 62 g/ha, headed Pre-emergence (flood test species), scale 0 to 10 (0 no effect, 10 complete control)
[25] = Rate 125 g/ha, Pre-emergence, flood test species, scale 0 to 10 where 0 is no effect and 10 is complete control
[26] = Rate 250 g/ha, Pre-emergence, flood-test species, scale 0 to 10, 0 is no effect, 10 is complete control
[27] = Rate 500 g/ha, Pre-emergence, flood test species, scale 0 to 10 (0 no effect, 10 complete control)

Structure (SMILES): Cc1ccccc1-n1c(=O)on(C(=O)N(c2ccc(N(C)C)cc2)C(C)C)c1=O [Compound 237]
- Sugarbeets plant response rating [1, 17]: 0
- Sugarbeets plant response rating [1, 18]: 0
- Plant response rating, Sugarbeets [1, 19]: 0
- Sugarbeets plant response rating [1, 20]: 0
- Sugarbeets plant response rating [1, 21]: 0
- Sugarbeets plant response rating [1, 22]: 0
- Plant response rating (0 to 10; 0 is no effect, 10 is complete control), Sugarbeets ([1]; Rate 250 g/ha, Postemergence): 0
- Sugarbeets plant response rating [1, 23]: 0
- Corn plant response rating [2, 17]: 0
- Corn plant response rating [2, 18]: 0
- Plant response rating, Corn [2, 19]: 0
- Corn plant response rating [2, 20]: 0
- Corn plant response rating [2, 21]: 0
- Corn plant response rating [2, 22]: 0
- Plant response rating (0 to 10; 0 is no effect, 10 is complete control), Corn ([2]; Rate 250 g/ha, Postemergence): 0
- Corn plant response rating [2, 23]: 0
- Nutsedge plant response rating ([3]; Rate 62 g/ha, scale of 0 to 10 where 0 is no effect and 10 is complete control): 0
- Nutsedge plant response rating ([3]; Rate 125 g/ha, scale 0 to 10): 0
- Plant response rating (0 to 10; 0 is no effect, 10 is complete control), Nutsedge ([3]; Rate 250 g/ha): 0
- Nutsedge plant response rating ([3]; Rate 500 g/ha, scale 0 to 10, 0 no effect, 10 complete control): 0
- Ducksalad plant response rating [4, 24]: 0
- Ducksalad plant response rating [4, 25]: 0
- Ducksalad plant response rating [4, 26]: 0
- Ducksalad plant response rating [4, 27]: 0
- Redroot pigweed plant response rating [5, 17]: 0
- Redroot pigweed plant response rating [5, 18]: 0
- Plant response rating, Redroot pigweed [5, 19]: 0
- Redroot pigweed plant response rating [5, 20]: 0
- Redroot pigweed plant response rating [5, 21]: 0
- Redroot pigweed plant response rating [5, 22]: 0
- Plant response rating (0 to 10; 0 is no effect, 10 is complete control), Redroot pigweed ([5]; Rate 250 g/ha, Postemergence): 2
- Redroot pigweed plant response rating [5, 23]: 3
- Rice plant response rating [6, 24]: 0
- Rice plant response rating [6, 25]: 0
- Rice plant response rating [6, 26]: 0
- Rice plant response rating [6, 27]: 0
- S. Flatsedge plant response rating [7, 24]: 0
- S. Flatsedge plant response rating [7, 25]: 0
- S. Flatsedge plant response rating [7, 26]: 0
- S. Flatsedge plant response rating [7, 27]: 0
- B. signalgrass plant response rating [8, 17]: 0
- B. signalgrass plant response rating ([8]; Preemergence, Rate 250 g/ha, scale 0 to 10, 0 is no effect, 10 is complete control): 0
- Plant response rating, B. signalgrass [8, 19]: 0
- B. signalgrass plant response rating [8, 20]: 0
- B. signalgrass plant response rating ([8]; Rate 125 g/ha, Postemergence, scale 0 (no effect) to 10 (complete control)): 0
- B. signalgrass plant response rating [8, 22]: 0
- Plant response rating (0 to 10; 0 is no effect, 10 is complete control), B. signalgrass ([8]; Rate 250 g/ha, Postemergence): 0
- B. signalgrass plant response rating [8, 23]: 0
- Soybean plant response rating [9, 17]: 0
- Soybean plant response rating [9, 18]: 0
- Plant response rating, Soybean [9, 19]: 0
- Soybean plant response rating [9, 20]: 0
- Soybean plant response rating [9, 21]: 1
- Soybean plant response rating [9, 22]: 0
- Plant response rating (0 to 10; 0 is no effect, 10 is complete control), Soybean ([9]; Rate 250 g/ha, Postemergence): 1
- Soybean plant response rating [9, 23]: 1
- Bedstraw plant response rating [10, 17]: 0
- Bedstraw plant response rating [10, 18]: 0
- Plant response rating, Bedstraw [10, 19]: 0
- Bedstraw plant response rating [10, 20]: 0
- Bedstraw plant response rating [10, 21]: 0
- Bedstraw plant response rating [10, 22]: 0
- Plant response rating (0 to 10; 0 is no effect, 10 is complete control), Bedstraw ([10]; Rate 250 g/ha, Postemergence): 2
- Bedstraw plant response rating [10, 23]: 3
- Wheat plant response rating [11, 17]: 0
- Wheat plant response rating [11, 18]: 0
- Plant response rating, Wheat [11, 19]: 0
- Wheat plant response rating [11, 20]: 0
- Wheat plant response rating [11, 21]: 0
- Wheat plant response rating [11, 22]: 0
- Plant response rating (0 to 10; 0 is no effect, 10 is complete control), Wheat ([11]; Rate 250 g/ha, Postemergence): 0
- Wheat plant response rating [11, 23]: 0
- Rape plant response rating [12, 17]: 0
- Rape plant response rating [12, 18]: 0
- Plant response rating, Rape [12, 19]: 0
- Rape plant response rating [12, 20]: 0
- Rape plant response rating [12, 21]: 0
- Rape plant response rating [12, 22]: 0
- Plant response rating (0 to 10; 0 is no effect, 10 is complete control), Rape ([12]; Rate 250 g/ha, Postemergence): 0
- Rape plant response rating [12, 23]: 0
- Cocklebur plant response rating [13, 17]: 0
- Cocklebur plant response rating [13, 18]: 0
- Plant response rating, Cocklebur [13, 19]: 0
- Cocklebur plant response rating [13, 20]: 0
- Cocklebur plant response rating [13, 21]: 0
- Cocklebur plant response rating [13, 22]: 0
- Plant response rating (0 to 10; 0 is no effect, 10 is complete control), Cocklebur ([13]; Rate 250 g/ha, Postemergence): 0
- Cocklebur plant response rating [13, 23]: 0
- Wild oats plant response rating [14, 17]: 0
- Wild oats plant response rating [14, 18]: 0
- Plant response rating, Wild oats [14, 19]: 0
- Wild oats plant response rating [14, 20]: 0
- Wild oats plant response rating [14, 21]: 0
- Wild oats plant response rating [14, 22]: 0
- Plant response rating (0 to 10; 0 is no effect, 10 is complete control), Wild oats ([14]; Rate 250 g/ha, Postemergence): 0
- Wild oats plant response rating [14, 23]: 0
- Giant foxtail plant response rating [15, 17]: 0
- Giant foxtail plant response rating [15, 18]: 4
- Plant response rating, Giant foxtail [15, 19]: 4
- Giant foxtail plant response rating [15, 20]: 0
- Giant foxtail plant response rating [15, 21]: 0
- Giant foxtail plant response rating [15, 22]: 0
- Plant response rating (0 to 10; 0 is no effect, 10 is complete control), Giant foxtail ([15]; Rate 250 g/ha, Postemergence): 0
- Giant foxtail plant response rating [15, 23]: 0
- Velvetleaf plant response rating [16, 17]: 0
- Velvetleaf plant response rating [16, 18]: 0
- Plant response rating, Velvetleaf [16, 19]: 0
- Velvetleaf plant response rating [16, 20]: 0
- Velvetleaf plant response rating [16, 21]: 0
- Velvetleaf plant response rating [16, 22]: 0
- Plant response rating (0 to 10; 0 is no effect, 10 is complete control), Velvetleaf ([16]; Rate 250 g/ha, Postemergence): 0
- Velvetleaf plant response rating [16, 23]: 2
